Source: article PMC8588536, “Iridal-Type Triterpenoids Displaying Human Neutrophil Elastase Inhibition and Anti-Inflammatory Effects from Belamcanda chinensis” (Molecules, 2021)
Entries after “also recorded” stand apart in the source; their conditions may differ.

Columns and labels:
[1] = test system: NO production in LPS-stimulated RAW264.7 cells; experiment: Nitrite levels (NO production), Griess method; type: cell-based, mouse; settings: 1 or 3 µg/mL 2 h prior to LPS 1 µg/mL for 16 h; p < 0.05
Method: Nitrite levels were determined using the Griess method, as described previously (Jeong et al., 2016). Briefly, RAW264.7 cells (5 × 10^4 cells/well) were cultured in a 24-well plate. The cells were pretreated with triterpenoids (1 or 3 µg/mL) 2 h prior to lipopolysaccharides (LPS, 1 µg/mL) treatment for 16 h. Supernatants were collected and centrifuged at 2451× g for 10 min. The (50 μL) of supernatants were mixed with equal volumes of Griess reagent (1% sulfanilamide, 0.1% n-l-naphthylethy-lenediamine dihydrochloride, and 2% phosphoric acid), and incubated for 10 min. The optical density was measured at 550 nm, and the nitrite levels were calculated from a standard curve generated from sodium nitrite.

[2] = test system: TNF-α mRNA in LPS-stimulated RAW264.7 cells; experiment: TNF-α mRNA expression by RT-PCR; type: cell-based, mouse; settings: 1 or 3 µg/mL, n = 6, p < 0.05
Method: Total RNA was isolated from cultured RAW264.7 cells using TRIzol reagent (Ambion®, Carlsbad, CA, USA) according to the manufacturer’s instructions. First strand cDNA was synthesized from the total RNA (3 μg) using oligo dT (DiaStar RT Kit, SolGent, Daejeon, Korea) and was used as a template for PCR amplification with G-Taq polymerase (Cosmogenetech, Seoul, Korea). The first-strand cDNA was quantified using a spectrophotometer (NanoDrop® ND-1000, NanoDrop Technologies, Wilmington, […], USA). The quantified cDNA was used as a template. PCR assay was performed with specific primers for inducible nitric oxide (iNOS), IL-1β, and TNF-α. The PCR steps included initial denaturation at 94 °C for 5 min, then 28 cycles at 94 °C for 30 s, 57 °C for 30 s, and 72 °C for 30 s, and a final extension step at 72 °C for 10 min. The amplified PCR products were separated in 1.5% agarose gel, and the gel was stained with ethidium bromide. The bands were visualized using the iBright^TM CL1500 imaging system (Thermo Scientific Fisher/Life Technologies Holdings Pte Ltd., Singapore). The DNA fragments were directly sequenced with the ABI PRISM® 3100-Avant Genetic Analyzer (Applied Biosystems, Carlsbad, CA, USA).

[3] = target: T1, Human neutrophil elastase (HNE, EC 3.4.21.37) (Homo sapiens, UniProt P08246); experiment: Human neutrophil elastase inhibition, spectrophotometric, MeOSuc-AAPV-pNA substrate; type: biochemical; settings: for Ki: Dixon plots, read-out: Ki (inhibition constant); for Type of Inhibition: Lineweaver-Burk and Dixon plots, reversibility from activity vs enzyme concentration plots; for IC50: concentration that caused 50% enzyme activity loss, three sets of experiments
T1 construct: purchased Sigma-Aldrich
T1 sequence (P08246 30-267): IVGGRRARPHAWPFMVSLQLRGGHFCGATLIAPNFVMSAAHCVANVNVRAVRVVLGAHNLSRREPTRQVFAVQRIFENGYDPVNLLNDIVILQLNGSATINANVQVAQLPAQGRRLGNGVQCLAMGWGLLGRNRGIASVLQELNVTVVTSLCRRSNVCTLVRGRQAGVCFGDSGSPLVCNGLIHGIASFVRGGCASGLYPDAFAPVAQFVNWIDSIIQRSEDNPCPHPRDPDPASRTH
Method: Human neutrophil elastase (EC 3. 4. 21. 37) (Sigma-Aldrich, St. Louis, MO, USA) activity was measured in accordance with the previous description with subtle modification, by observing the formation of p-nitroaniline after the hydrolysis of N-methoxysuccinyl-Ala-Ala-Pro-Val-p-nitro anilide at 405 nm. The inhibitors were dissolved in dimethyl sulfoxide (DMSO) and diluted to a few concentrations. In brief, in a 96-well plate, 10 µL of inhibitor solution and 40 µL of 1.5 mM of MeOSuc-AAPV-pNA were added as a substrate in the 0.02 mM Tris-HCl buffer solutions (pH 8.0). Then, 20 µL of human neutrophil elastase (0.2 unit/mL) was added to the mixture. The test mixtures were incubated and mixed for 15 min at room temperature and then screened at 405 nm for 30 min every 30 s.
Activity (%) = 100 [1/(1 + ([I]/IC50))].(1)
The modalities of HNE inhibition were estimated in experiments using particular concentrations of the substrates and inhibitors, respectively. The Michaelis–Menten constant (Km) and maximal velocity (Vmax) were investigated by a Lineweaver–Burk plot. The KI, dissociation constants for inhibitor binding to the free enzyme were calculated using a Dixon plot. Equations (2)–(4) are representatives for deriving the aforementioned parameters. (2) 1/V=Km/Vmax(1+[I]/Ki)×1/S+1/Vmax (3) Slop=Km/KiVmax[I]+Km/Vmax (4) Intercept=1/KiVmax[I]+1/Vmax.

[4] = test system: LPS-stimulated RAW264.7 cells; experiment: LPS-induced morphological changes (macrophage activation); type: cell-based, mouse; settings: pre-treatment 1 or 3 µg/mL
Method: (§1) The mouse macrophage cell line RAW264.7 was obtained from the American Type Culture Collection (ATCC, Manassas, VA, USA). The cells were cultured in DMEM supplemented with 10% fetal bovine serum (FBS), penicillin (100 U/mL), and streptomycin (100 μg/mL) at 37 °C with 5% CO2. The medium was replaced every 2 days. After treatment with chemicals, the cell morphological changes were observed under a microscope and images are captured before cell viability assay.

RAW264.7 cells = experiment: MTT cell viability assay; type: cell-based, mouse; settings: 10 µg/mL, 24 h
Method: as §1
Cell viability was determined calorimetrically using a 3-(4,5-dimethylthiazole-2-yl)-2,5-diphenyl tetrazolium bromide (MTT) reagent (5 mg/mL in phosphate buffered saline (PBS), Duchefa Biochemie, Haarlem, The Netherlands). The MTT assay procedures were performed as described previously. Briefly, a 24-well plate (5 × 10^4 cells/well) was seeded with RAW264.7, a mouse macrophage cell line. After 24 h of chemical treatment, each well was filled with 20 µL of 5 mg/mL MTT solution (0.1 mg/mL) and incubated for 4 h. After aspirating the supernatants, the formazan crystals in each well were dissolved in 200 µL of dimethyl sulfoxide (DMSO) for 30 min at 37 °C, and the 24-well plates were read at 570 nm with a microplate reader (Bio-Rad, Hercules, CA, USA). Data are expressed as a percentage of viable cells compared with the control.

Row | Structure (SMILES) | LPS-induced NO production [1] | LPS-upregulated TNF-α mRNA level [2] | Ki [3] | Type of Inhibition [3] | IC50 [3] | effect on LPS-induced morphological changes [4] | reduction of cell viability (RAW264.7 cells)
1 | CC(C)=CCC/C(C)=C/C[C@@H](O)/C(C)=C/CC[C@@]1(C)[C@H](CCCO)/C(=C(/C)C=O)CC[C@]1(C)O [Compound 1, isoiridogermanal] | significantly reduced | noticeably decreased | 12.7 µM | noncompetitive inhibition | 14.4 ± 0.3 µM | ameliorated | 28.8 ± 4.4%
2 | CC(C)=CCCC(C)=CCC(O)C(C)=CCCC1(C)C(CCCO)C(=C(C)C=O)CCC1(C)O (centres unmarked) [Compound 2, iridobelamal A] | significantly reduced; also recorded: dose-dependent inhibition | noticeably decreased | 24.9 µM | noncompetitive inhibition | 27 ± 0.6 µM | ameliorated | 23.4 ± 5.1%
